{"source": "patent US10206944B2", "about": "“Chondroitin for use in medicine” (ALTERGON S.A., priority 2012, dated 2019)", "key": {"[1]": {"tested_on": "mice or Sprague Dawley rats", "assay": "Acute toxicity study", "type": "in vivo, mouse and rat", "protocol": "Acute toxicity study—The study was conducted on two animal models, the mouse and rat, to which chondroitin was administered orally (p.o.) or intravenously (i.v.). For each experiment the animals (mice or Sprague Dawley rats) were divided into 5 groups of 20 (10 males and 10 females) which received p.o. or i.v. chondroitin at doses ranging from 250 to 2,000 mg/Kg for oral administration and 20 to 160 mg/Kg for intravenous administration; the volume administered was 10 mL/Kg for p.o. administration and 5 mL/Kg for i.v. administration.\nAt the end of the treatment the animals were euthanized and a complete autopsy was performed."}, "[2]": {"tested_on": "Sprague Dawley rats", "assay": "Subacute toxicity study, 30 days", "type": "in vivo, rat", "protocol": "Subacute toxicity study—The study was performed on the rat by administering chondroitin orally (p.o.) and intramuscularly (i.m.). For each of the two studies the animals (Sprague Dawley rats) were divided into 4 groups formed by 15 males and 15 females; chondroitin at the concentration of 50, 100 and 200 mg/Kg respectively was administered to the first 3 groups, and the carrier alone to the fourth group; the administration volume was 10 mL/Kg for p.o. administration and 5 mL/Kg for i.m. administration. Daily administration continued for 30 days. The doses used represent up to 20 times the human therapeutic dose. The general state of health and behaviour of the treated animals were monitored daily, and weight variations, haematological status and urine were evaluated every 5 days. […] At the end of the study all animals were euthanized and an autopsy and histopathological analysis of the main organs (lungs, heart, liver, ovaries, uterus, testicles, kidneys and pituitary gland) were conducted. None of these evaluations indicated any significant differences between the animals treated with chondroitin and the control animals which received the carrier alone."}, "[3]": {"tested_on": "rats (Sprague Dawley)", "assay": "Chronic toxicity study, 26 weeks", "type": "in vivo", "conditions": "rat", "protocol": "Chronic toxicity study—This study was conducted on rats (Sprague Dawley) treated daily for 26 weeks with chondroitin administered p.o. (by gavage) at doses ranging from 50 to 200 mg/Kg. The general state of health and behaviour of the treated animals were monitored daily, and weight variations, haematological status and urine were evaluated every 7 days. […] At the end of the study all animals were euthanized and an autopsy and histopathological analysis of the main organs (lungs, heart, liver, ovaries, uterus, testicles, kidneys, pituitary gland, lymph nodes and gastrointestinal tract) were conducted. None of these evaluations indicated any significant differences between the animals treated with chondroitin and the control animals which received the carrier alone."}, "[4]": {"tested_on": "Escherichia coli strain sensitive to the action of mutagenic substances", "assay": "DNA-repair test", "type": "cell-based", "conditions": "highest doses, with and without metabolic activation", "protocol": "In vitro test, DNA-repair test—The DNA alteration test was conducted with a strain of Escherichia coli sensitive to the action of mutagenic substances. In the study, mitomycin C was used as positive control and penicillin G as negative control."}, "[5]": {"tested_on": "volunteers suffering from dry eye", "assay": "Ophthalmic eyedrops in volunteers suffering from dry eye", "type": "in vivo, human", "protocol": "Two ophthalmic preparations were compared: a conventional one based on hyaluronic acid and one based on chondroitin, both at the concentration of 3% w/v in NaCl saline solution at pH 7.4. The eyedrops were prepared in single-dose packaging sterilised in the autoclave. […] The volunteers, of both sexes, aged between 45 and 60 years, were randomised into two groups of 15, and treated with the two types of eyedrops. Under medical control the inflammatory state of the corneal surface was evaluated at the beginning and end of the treatment, and the evaluations of the treated patients relating to tolerability, duration of the wetting effect, and visual alteration after application, were recorded. A scale of 1 to 5 was used for the clinical evaluations and the patients' evaluations, where 5 represents optimum resolution of the pathological condition and its sequelae. […]"}}, "note": "Entries after “also recorded” stand apart in the source; their conditions may differ.", "data": [{"substance": "chondroitin", "values": [{"measurement": "LD50", "setting": "[1]; acute, single dose i.v., mouse and rat", "value": "> 160", "unit": "mg/kg"}, {"measurement": "signs of toxicity or mortality", "setting": "[1]; examined every 24 h for 40 days, up to 2,000 mg/Kg p.o., 160 mg/Kg i.v.", "value": "no signs of toxicity or mortality were observed"}, {"measurement": "subacute toxicity, conclusion", "setting": "[2]; rat, 50, 100 and 200 mg/Kg p.o. and i.m., 30 days", "value": "non-toxic at the doses used"}, {"measurement": "No toxicity (dose), subacute 30 days", "setting": "[2]; rat, p.o. and i.m., daily for 30 days", "value": "No toxicity >200 mg/kg/day p.o. and i.m."}, {"measurement": "chronic toxicity, conclusion", "setting": "[3]; 50 to 200 mg/Kg p.o., 26 weeks", "value": "non-toxic at the doses used"}, {"measurement": "No toxicity (dose), chronic 26 weeks", "setting": "[3]; p.o., daily for 26 weeks", "value": "No toxicity >200 mg/kg/day p.o."}, {"measurement": "interaction with / alteration of DNA (DNA-repair test)", "setting": "[4]", "value": "does not interact and does not alter the DNA; also recorded: Even at higher doses it does not interact and does not alter"}, {"measurement": "Doctor: corneal inflammation", "setting": "[5]; 0 days, 3% w/v eyedrops, scale of 1 to 5, 5 optimum", "value": "1.1 ± 0.2"}, {"measurement": "Patient: absence of visual alteration", "setting": "[5]; 10 days, scale of 1 to 5", "value": "4.6 ± 0.2"}, {"measurement": "Patient: tolerability", "setting": "[5]; 10 days, scale of 1 to 5", "value": "4.7 ± 0.2"}, {"measurement": "Patient: wetting effect", "setting": "[5]; 10 days, scale of 1 to 5", "value": "4.8 ± 0.3"}, {"measurement": "Patient: absence of visual alteration", "setting": "[5]; 20 days, scale of 1 to 5", "value": "4.7 ± 0.1"}, {"measurement": "Patient: tolerability", "setting": "[5]; 20 days, scale of 1 to 5", "value": "4.5 ± 0.5"}, {"measurement": "Patient: wetting effect", "setting": "[5]; 20 days, scale of 1 to 5", "value": "4.6 ± 0.2"}, {"measurement": "Doctor: corneal inflammation", "setting": "[5]; 30 days, 3% w/v eyedrops 4 times a day, scale of 1 to 5", "value": "4.2 ± 0.3"}, {"measurement": "Patient: absence of visual alteration", "setting": "[5]; 30 days, scale of 1 to 5", "value": "4.8 ± 0.1"}, {"measurement": "Patient: tolerability", "setting": "[5]; 30 days, scale of 1 to 5", "value": "4.8 ± 0.1"}, {"measurement": "Patient: wetting effect", "setting": "[5]; 30 days, scale of 1 to 5", "value": "4.9 ± 0.1"}]}]}
